Experimental data: PMC11191402, “High-Affinity NIR-Fluorescent Inhibitors for Tumor Imaging via Carbonic Anhydrase IX” (Bioconjugate Chemistry, 2024)

Molecular target: T1, CAIX expressed in live HeLa cells (Homo sapiens, UniProt Q16790)
T1 construct: an open reading frame for the full-length CAIX protein (1–459 amino acids) without a tag; expressed in transfected cells; host or cells: HeLa cells transfected with pCMV-CAIX (TurboFect), normoxia
Test: NIR-fluorescent compound dosing on live HeLa cells (direct binding)
Excerpt: To measure NIR-fluorescent compound binding to CAIX expressed in cancer cells, the GZ22-4 compound was applied in different concentrations to live HeLa cells grown under hypoxia and normoxia, as described in the Materials and Methods section, and was previously performed for the fluorescein-conjugated CAIX inhibitor GZ19-32.[16] […] The difference was hidden in the low signal-to-noise ratio.
To increase the amount of CAIX expression, the HeLa cells were transfected with the CAIX-encoding plasmid pCMV-CAIX. There was a dramatic increase in CAIX expression observed both in the dosing curve and fluorescence microscopy results. […] In the case of transfection, we can see both the specific CAIX-dependent signal and relatively weak nonspecific binding of the dye to unknown targets at concentrations above approximately 1 μM (shown as a dashed curve, increasing at the same concentrations as the nontransfected cell dosing curve).
Fluorescence values corresponding to the transfection effect were obtained by subtraction of nontransfected values from transfected fluorescence values, showing the resultant data points as open squares. […] However, the determination of the Kd via dosing curves at such high protein concentrations is not accurate and can only serve as an estimate of affinity.
Both assays were performed as previously described.[16] In brief, to measure fluorescent compound binding to CAIX expressed in live cells, HeLa cells were seeded in 12-well plates and either incubated in hypoxia for 3 days or transfected with the CAIX-coding plasmid pCMV-CAIX next day after seeding. The TurboFect transfection reagent (Thermo Fisher) was used for transfection. […] 150 μL of the suspension from each well was transferred to Thermo Scientific Nunc MicroWell 96-Well Optical-Bottom Plates for fluorescence and absorbance measurements. 759 nm excitation and 800 nm emission wavelengths were used to measure fluorescence on a Synergy HTX, BioTek plate reader. 650 nm wavelength was used for absorbance measurements.

CC1(C)C(/C=C/C2=C(Oc3ccc(CCC(=O)NCCOCCOCCOCCOCCOCCOCCOCCOCCOCCOCCOCCNC(=O)CCS(=O)(=O)c4c(F)c(F)c(S(N)(=O)=O)c(F)c4NC4CCCCCCC4)cc3)C(=C/C=C3\N(CCCCS(=O)(=O)[O-])c4ccccc4C3(C)C)/CCC2)=[N+](CCCCS(=O)(=O)[O-])c2ccccc21.[Na+] [GZ22-4, Sodium 4-((Z)-2-((E)-2-(2-(4-(43-((2-(Cyclooctylamino)-3,5,6-trifluoro-4-sulfamoylphenyl)sulfonyl)-3,41-dioxo-7,10,13,16,19,22,25,28,31,34,37-undecaoxa-4,40-diazatritetracontyl)phenoxy)-3-((E)-2-(3,3-dimethyl-1-(4-sulfonatobutyl)-3H-indol-1-ium-2-yl)vinyl)cyclohex-2-en-1-ylidene)ethylidene)-3,3-dimethylindolin-1-yl)butane-1-sulfonate]
Kd (HeLa transfected with pCMV-CAIX, normoxia, nontransfected values subtracted, 120 nM CAIX, only an estimate of affinity, read-out: Kd from dosing curve on CAIX-transfected HeLa cells): 1 nM
fluorescence signal in hypoxia vs normoxia (nontransfected live HeLa cells, plate reader): no difference in the fluorescence signal in hypoxia vs normoxia
concentration above which nonspecific binding of the dye to unknown targets is seen (transfected and nontransfected HeLa cell cultures): > 1 µM
